Assays:
[1] = molecular target: T1, prenylated protein methyltransferase (PPMTase) (Rattus norvegicus, UniProt Q9WVM4); test: Methylation of AFC by PPMTase in rat cerebellar synaptosomal membranes; assay type: biochemical; conditions: for Ki: Table II, given as range, read-out: Ki
T1 construct: from tissue; host or cells: rat cerebellum, synaptosomal membranes
Source text: As a substrate for methylation served AFC and as the donor of methyl served [methyl-H^3] labelled AdoMet. As a source of the enzyme prenylated protein methyltransferase (PPTMase) served rat cerebellar membranes which are known to be membranes enriched with this enzyme (Ben-Baruch, Biochem. Biophys. Res. Commun., 195, 282-288. (1993)).
Charles River adult male rats were used for preparation of cerebellar synaptosomal membranes. Cerebella were removed after decapitation and homogenized in 0.32M sucrose containing 50 mM Tris-HCl pH 7.4, 3 mM EDTA, 1 mM EGTA, 5 unit/ml aprotinin and 5 μg/ml pepstatin (buffer A) to yield 10% (w/v) homogenates. Nuclear fractions were obtained by 10 min. 600×g centrifugation and synaptosomal fractions were obtained by 20 mins. 14,500×g centrifugation. Membranes of the various cell types used were prepared in the above buffer A by a 60 min. spin at 100,000×g.
Pellets were resuspended in the homogenization buffer and stored at −70° C. Methylation assays were performed at 37° C. in 50 mM Tris-HCl buffer pH 7.4, using 75-125 μg protein, 25 μM [methyl-^3H]AdoMet ([…] in DMSO) in a total volume of 50 μl. DMSO concentration in all assays was 4%.
Reactions were terminated after 10 min. by adding 500 μl chloroform methanol (1:1) and a subsequent addition of 250 μl H2O, mixing them and subsequently by phase separation. A portion of 125 μl of the chloroform phase was dried down at 40° C. and 200 μl of 1M NaOH/1% SDS solution were added thereto. The [^3H]methanol thus formed was counted by the vapor phase equilibrium method as described previously (Hakiai et al., Cell Mol. Neurobiol., 11, 415-431, (1991); Lenner et al., Cell Mol. Neurbiol., 12, 333 and 3351, (1992); Ben-Baruch et al., Biochem. Biophy. Res. Commun., 195, 282-288, (1993)). Typical background counts (i.e. counts of methylation with no AFC added) were 50-100 cpm while typical methylation counts with AFC as a substrate yielded 500 to 6000 cpm. Assays were performed in triplicate and background counts subtracted. Methylation of endogenous substrates, in intact cells, and [α-^32P] GTP-blot overlay assays and gel electrophoreses were performed as detailed previously (Hakiai et al., supra (1991); Lenner et al., supra (1993)).

[2] = tested on: Ha-ras-transformed rat1 cells; test: Growth of ras-transformed rat1 cells (cell counting); assay type: cell-based, rat; conditions: for EC50: Rattus norvegicus, 168 h, day 7 of drug treatment, estimated from dose response curves, read-out: Inhibition of rab-transformed rat1 cell growth EC50; for effects on cell growth of ras-transformed rat1 cells: drug concentrations up to 200 μM
Source text: The cell lines employed were rat1, -EJ, which are rat1 cells stably expressing Val- 12 activated human Ha-ras gene (Land H. et al., Nature, 304, 596-602, (1983)); V-raf-3T3, which are 3T3 cells stably expressing the V-raf gene (Xu, N., et al., Proc. Natl. Acad. Sci., 90, 6741-6745); RB-22, which are 3T3 cells stably expressing the rat Erb-B2 gene (Peles, et al., EMBO J., 10, 2077-2086 (1991)) CO6O cells (SV40-CHO), which are CHE cells stably expressing the SV-40 T-antigen gene (Lavi, Proc. Natl. Acad. Sci., 78, 6144-6148 (1981)); human endometrial carcinoma cell line HEC1A, which are cells that express activated K-ras (Enomoto T., Cancer Res., 50, 6139-6145; mouse B16F10 melanoma cells, rat pheochromocytoma PC12 cells, […] cells CHE and COS cells.
HEC1A, V-raf-3T3 and SV40-CHE cells were grown in Dulbecco's modified Eagle medium (DMEM) containing 10% fetal calf serum (FCS), 4 mM L-glutamine, 10 μg/ml streptomycin and 10 U/ml penicillin. Rat1 and -EJ cells were grown in the same medium except that it was supplemented with 12.5 U/ml nyostatin. RB-22 cells were grown in modified DMEM (1 mM sodium pyruvate, 20 mM sodium bicarbonate)/10% FCS containing 4 mM L-glutamine, […] streptomycin, 10 U/ml penicillin. PC-12 cells were grown in DMEM 15% FCS/5% horse serum and the above noted antibiotics.
HEC1A cells were plated in 24 well plates at a density of 5×10^3 cells per well and fed with 1 ml of medium. The cells were grown at 37° C. in a humidified atmosphere of 95%/5% air/CO2. All other cell types employed were plated in 24 well plates at a density of 2×10^3 cells per well and fed with the appropriate medium.
Cultures were treated with farnesyl derivatives or with solvent either 3 hrs following plating or one day after plating as indicated. […] Control cultures received 0.1% DMSO only. Cultures were fed on days 6, 7 and 9 of the experiment with the drugs or with solvent-containing media.
Cells were counted following 3, 7 and 10 days of beginning of treatments with drugs. For counting, cells were detached from plates with trypsin/EDTA, and collected by a low speed spin in the presence of DMEM/10% FCS. The pelleted cells were resuspended in a small volume of DMEM/10% FCS and counted under the microscope. Viability of cells was estimated by staining with (3-(4,5-dimethylthiosol-2-yl)-2,5-diphenyltetrazolium bromide (MTT) and microscopic examination of the stained and unstained cells, or spectrophotometric estimation (OD490, 590) of the total stain in each well. Non viable cells were estimated by the trypan blue exclusion method.
Cells were plated at a density 2×10^3/well and received either solvent or drugs one day later. Following 3, 7, or 10 days of the drugs-treatment as described above, cells were collected and the number of cells in each well was estimated by direct counting. […] The effect was apparent after a delay of at least three days. About 40-60% inhibition of cell growth was induced either by FTA or by FTS observed on days 7 and 10 of the treatment.

platelet aggregation = conditions: cited from earlier work
neutrophils chemotaxis = conditions: cited from earlier work
ras methylation = conditions: ras-transformed NTH3T3 cells; cited from earlier work
[3] = tested on: ras-transformed NTH3T3 cells; conditions: cited from earlier work

T1 sequence (Q9WVM4 whole entry): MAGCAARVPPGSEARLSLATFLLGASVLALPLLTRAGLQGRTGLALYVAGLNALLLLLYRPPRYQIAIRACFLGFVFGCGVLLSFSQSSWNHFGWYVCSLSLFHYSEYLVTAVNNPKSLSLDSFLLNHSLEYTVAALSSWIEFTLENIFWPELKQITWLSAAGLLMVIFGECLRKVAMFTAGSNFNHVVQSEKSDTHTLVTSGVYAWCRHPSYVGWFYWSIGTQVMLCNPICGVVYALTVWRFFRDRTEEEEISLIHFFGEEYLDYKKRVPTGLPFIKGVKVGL

Row | serves as substrate for PPMTase methylation [1] | Ki [1] | [3H-methyl]ester formed ([1]; 100 μM AFC alone as substrate) | [3H-methyl]ester formed ([1]; 200 μM of the substance alone as substrate) | SMILES | EC50 [2] | effects on cell growth of ras-transformed rat1 cells [2] | inhibition of platelet aggregation (platelet aggregation) | inhibition of neutrophils chemotaxis (neutrophils chemotaxis) | inhibition of ras methylation (ras methylation) | inhibition of cell growth [3]
1 | do not serve as substrates | 6.6 to 9.5 µM |  |  | CC(C)=CCC/C(C)=C/CC/C(C)=C/CNc1ccc(Cl)c(C(=O)O)c1 [NFCB, 2-chloro-5-farnesylaminobenzoic acid] | 20 to 40 µM | effects similar to those observed with FTS and FTA |  |  |  | 
2 |  |  | 3200 ± 130 cpm/assay | 3700 ± 150 cpm/assay | CC(=O)N[C@@H](CSC/C=C(\C)CC/C=C(\C)CCC=C(C)C)C(=O)O (stereo in doubt) [AFC, N-acetyl-trans-trans-farnesyl-L-cysteine] |  |  | inhibit | inhibit | can inhibit ras methylation | does not inhibit their growth
3 | do not serve as substrates | 66.1 to 80.5 µM |  |  | CC(C)=CCC/C(C)=C/CC/C(C)=C/CSc1ccc(N)cc1C(=O)O [5-amino FTS] | > 200 µM | not active |  |  |  | 

Reference: USRE39682E1, “Farnesyl derivatives and pharmaceutical compositions containing them” (Ramot at Tel Aviv University Ltd., priority 1993, dated 2007)
